*1 amine or outer side, *2 acyl side, *3 side chain or, on linkers, in order; H or OH if unused. Where a SMILES comes first, the peptide text is derived from it. [ ]: non-standard residue; d: D form. The star is where a group is joined. X1 = CO[C@H]1[C@@H](O)[C@@H](C)OC(Oc2ccc(NC(=S)*)cc2)[C@H]1O; X2 = CC[C@@]1(O*)C(=O)OCc2c1cc1n(c2=O)Cc2cc3ccccc3nc2-1; X3 = CO[C@H]1[C@@H](O)[C@@H](C)OC(Oc2ccc(N*)cc2)[C@H]1O; CO = O=C([*:1])[*:2]
Assays:
[1] = tested on: hemopoietic stem cells (bone marrow cells); assay: cells; assay type: cell-based, mice; conditions: murine bone marrow cells, recombinant murine GM-CSF, 7 days
Procedure: C. CSF-Induced Proliferation of Hemopoietic Stem Cells
Bone marrow cells are flushed out of the femur of mice. 105 cells are incubated in McCoy 5A medium (0.3% agar) together with recombinant murine GM-CSF (Genzyme; parent cell colony formation) and the substances (10^−4 to 100 μg/ml) at 37° C. and 7% CO2. 7 days later, the colonies ([…]) and clusters (17-50 cells) are counted.

[2] = tested on: SW 480 human large intestine cell line; assay: Growth inhibition test (MTT) for cytotoxic properties on tumour cell lines; assay type: cell-based; conditions: SW480 cells, growth checked after day 6, read-out: IC50 of the cytotoxic action on tumour cell lines, SW480
Procedure: (§1) A: Growth Inhibition Test for the Determination of the Cytotoxic Properties on Various Tumour Cell Lines
(§2) The human large intestine cell lines SW 480 and HT29 (ATCC No. CCL 228 and HTB38 and the mouse melanoma cell line B16F10 (CRL 6475) were grown to confluence in Roux dishes in RPMI 1640 medium with addition of 10% FCS. They were then trypsinized and taken up in RPMI plus 10% FCS to a cell count of 50,000 cells or, for B16F10, 20,000 cells per ml. 100 μl of cell suspension/well were added to a 96 microwell plate and incubated at 37° C. for 1 day in a CO2 incubator. A further 100 μl of RPMI medium and 1 μl of DMSO were then added with the test substances. The growth was checked after day 6. For this, 25 μl of MTT solution (3-(4,5-dimethylthiazol-2-yl)-2,5-diphenyltetrazolium bromide) was added to each well at a starting concentration of 5 mg/ml of H2O. The plate was incubated at 37° C. for 5 hours in a CO2 incubator. The medium was then aspirated and 100 μl of 1-propanol/well were added. After shaking with 100 μl of H2O for 30 min, the extinction was measured at 595 nm using a Multiplate Reader (BIO-RAD 3550-UV).
(§3) The cytostatic action is indicated in Table 1 as an IC50 value, in each case for the individual cell lines.

[3] = tested on: HT29 human large intestine cell line; assay: as above; assay type: cell-based; conditions: HT29 cells, growth checked after day 6, read-out: IC50 of the cytotoxic action on tumour cell lines, HT29
Procedure: as §1, §2, §3

[4] = tested on: subcutaneously growing melanoma xenograft model (MEXF 989); assay: In-vivo inhibition of tumour growth using a nude mouse model; parameters: species or system athymic nude mice (NMRI nu/nu strain); conditions: for inhibition of the tumor growth (in words): subcutaneously growing melanoma xenograft MEXF 989, nude mice; for optimal T/C in % / lethality: MEXF 989 xenograft, nude mice, i.v. or i.p., day 1-3 and day 15-17; for lethality: dead/5 mice
Source text: B. In-Vivo Inhibition or Tumour Growth Using a Nude Mouse Model
In all in-vivo experiments for investigating the inhibition of tumour growth, athymic nude mice (NMRI nu/nu strain) were used. The tumour was developed by serial passage in nude mice. The human origin of the tumour was confirmed by isoenzymatic and immunohistochemical methods.
The tumour was implanted subcutaneously in both flanks of nu/nu nude mice 6 to 8 weeks old. The treatment was started, depending on the doubling time, as soon as the tumours had reached a diameter of 5-7 mm. The mice were assigned to the treatment group or the control group (5 mice per group having 8-10 assessable tumours) by randomization. The individual tumours of the control group all grew progressively.
The size of the tumours was measured in two dimensions by means of a slide gauge. The tumour volume, which correlated well with the cell count, was then used for all assessments. The volume was calculated according to the formula “length×breadth×breadth/2” ([a×b^2]/2, a and b represent two diameters arranged at right angles).
The values of the relative tumour volume (RTV) were calculated for each individual tumour by dividing the tumour size on day×with the tumour size on day 0 (at the time of randomization). The average values of the RTV were then used for the further assessment.
The inhibition of the increase of the tumour volume (tumour volume of the test group/control group, T/C, in percent) was the final measured value.
The compounds can be administered with a daily or an intermittent therapy schedule through a couple of days either by intraperitoneal, intravenious, oral or subcutaneous route.
The compounds are dissolved in water or in PEG400/water 2:1 and are administered intravenously or intraperitoneally from day 1-3 and day 15-17.

[5] = tested on: B16F10 mouse melanoma cell line; assay: Growth inhibition test (MTT) for cytotoxic properties on tumour cell lines; assay type: cell-based; conditions: B16F10 cells, growth checked after day 6, read-out: IC50 of the cytotoxic action on tumour cell lines, B16F10
Procedure: as §1, §2, §3

MMP-2 = molecular target: T1, MMP-2 (Homo sapiens, UniProt P08253); assay: Cleavage of conjugates by MMP-2 in buffer; assay type: biochemical; conditions: after 6 h incubation with MMP-2 in buffer pH 7.5, HPLC peak areas
T1 construct: purchased Calbiochem
T1 sequence (P08253 110-660): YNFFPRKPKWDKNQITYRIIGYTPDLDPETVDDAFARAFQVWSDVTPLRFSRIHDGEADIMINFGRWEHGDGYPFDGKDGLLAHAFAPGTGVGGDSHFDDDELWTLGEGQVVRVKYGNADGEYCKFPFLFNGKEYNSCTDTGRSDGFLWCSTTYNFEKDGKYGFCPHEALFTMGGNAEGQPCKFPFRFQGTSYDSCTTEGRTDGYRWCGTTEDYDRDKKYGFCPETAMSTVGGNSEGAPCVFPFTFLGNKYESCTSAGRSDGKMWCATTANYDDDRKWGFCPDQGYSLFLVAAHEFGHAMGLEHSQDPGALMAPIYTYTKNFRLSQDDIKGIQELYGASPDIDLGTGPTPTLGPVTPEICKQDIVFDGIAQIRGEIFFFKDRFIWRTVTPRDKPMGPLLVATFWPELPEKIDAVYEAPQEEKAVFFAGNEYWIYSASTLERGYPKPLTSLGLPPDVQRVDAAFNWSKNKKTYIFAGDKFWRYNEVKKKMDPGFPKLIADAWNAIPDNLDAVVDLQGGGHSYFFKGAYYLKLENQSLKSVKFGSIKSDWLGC
Procedure: D. Cleavage of Conjugates by MMP-2 in Buffer
2.5 μl MMP-2 (Calbiochem) with a specific activity of 60μU/μl are incubated with 10 nM of the conjugates exemplified in the example series 1-25 in 1 ml of a medium consisting of 50 mM Tris-HCl pH 7.5, 0.2 M NaCl, 10 mM CaCl2*2H2O and 0,05% Brij 35. The enzyme mediated cleavage of the conjugates is detected by HPLC analysis using an RP18 (5 μM) column with 70% HClO4 /water (0.4% v/v) as eluent A and acetonitrile as eluent B (UV detection at […]). The efficiency of the cleavage is assessed by comparing the peak areas of the intact conjugate (starting material) and the cleavage product (tripeptide conjugate of camptothecin) after 6 h and 24 h incubation (cf, Table 4).

Row | Structure (SMILES) | IC50 ([1]; Mus musculus, Bone marrow cell, 168 h, read-out: IC50 of inhibition of colony counts of hemopoietic stem cells) | IC50 [2] | IC50 [3] | inhibition of the tumor growth (in words) [4] | IC50 of inhibition of colony counts of hemopoietic stem cells [1] | IC50 [5] | MMP-2 mediated cleavage, peak area product/educt × 100 (MMP-2) | optimal T/C in % ([4]; 8 mg/kg/day) | lethality ([4]; 8 mg/kg/day) | optimal T/C in % ([4]; 6 mg/kg/day) | lethality ([4]; 6 mg/kg/day)
1 | CC[C@@]1(O)C(=O)OCc2c1cc1n(c2=O)Cc2cc3ccccc3nc2-1 [Camptothecin, 20(S)-Camptothecin, reference compound] | 0.00025 µg/mL |  |  |  |  |  |  |  |  |  | 
2 | CC[C@@]1(OC(=O)[C@H](NC(=O)[C@@H](Cc2c[nH]cn2)NC(=O)CNC(=O)[C@H](CC(C)C)NC(=O)[C@H]2CCCN2C(=S)Nc2ccc(OC3O[C@H](C)[C@H](O)[C@H](OC)[C@@H]3O)cc2)C(C)C)C(=O)OCc2c1cc1n(c2=O)Cc2cc3ccccc3nc2-1.Cl (some centres unmarked) [Example 2] |  | 150 nM | 70 nM | effected inhibitions of the tumor growth |  |  |  |  |  |  | 
3 | CC[C@@]1(OC(=O)[C@H](NC(=O)[C@@H](Cc2c[nH]cn2)NC(=O)[C@@H](CC(C)C)NC(=O)CNC(=O)[C@H](CC(C)C)NC(=O)[C@H]2CCCN2C(=S)Nc2ccc(OC3O[C@H](C)[C@H](O)[C@H](OC)[C@@H]3O)cc2)C(C)C)C(=O)OCc2c1cc1n(c2=O)Cc2cc3ccccc3nc2-1.Cl (stereo partly drawn) [Example 3] (X1-[dP]LG[dL][dH][dV]-X2) |  | 100 nM | 50 nM |  | 0.04 µg/mL | 150 nM | 609 | 19.1% | 1/5 |  | 
4 | CC[C@@]1(OC(=O)[C@H](NC(=O)[C@@H](Cc2c[nH]cn2)NC(=O)[C@@H](CC(C)C)NC(=O)CNC(=O)[C@H](CC(C)C)NC(=O)[C@H]2CCCN2C(=O)Nc2ccc(OC3O[C@H](C)[C@H](O)[C@H](OC)[C@@H]3O)cc2)C(C)C)C(=O)OCc2c1cc1n(c2=O)Cc2cc3ccccc3nc2-1.Cl (stereo partly drawn) [Example 4] ({X3-CO}-[dP]LG[dL][dH][dV]-X2) |  | 50 nM | 40 nM |  |  | 150 nM | 700 |  |  |  | 
5 | CC[C@@]1(OC(=O)[C@H](NC(=O)[C@@H](CC(N)=O)NC(=O)[C@@H](CC(C)C)NC(=O)CNC(=O)[C@H](CC(C)C)NC(=O)[C@H]2CCCN2C(=S)Nc2ccc(OC3O[C@H](C)[C@H](O)[C@H](OC)[C@@H]3O)cc2)C(C)C)C(=O)OCc2c1cc1n(c2=O)Cc2cc3ccccc3nc2-1 (stereo partly drawn) [Example 5] (X1-[dP]LG[dL][dN][dV]-X2) |  | 80 nM | 60 nM | effected inhibitions of the tumor growth |  | 300 nM | 166 |  |  | 19.1% | 1/5
6 | CC[C@@]1(OC(=O)[C@H](NC(=O)[C@@H](CC(N)=O)NC(=O)[C@@H](CC(C)C)NC(=O)CNC(=O)[C@H](CC(C)C)NC(=O)[C@H]2CCCN2C(=O)Nc2ccc(OC3O[C@H](C)[C@H](O)[C@H](OC)[C@@H]3O)cc2)C(C)C)C(=O)OCc2c1cc1n(c2=O)Cc2cc3ccccc3nc2-1 (stereo partly drawn) [Example 6] ({X3-CO}-[dP]LG[dL][dN][dV]-X2) |  | 60 nM | 50 nM |  |  | 300 nM | 80 |  |  |  | 
7 | CC[C@@]1(OC(=O)[C@H](NC(=O)[C@@H](CC(=O)O)NC(=O)[C@@H](CC(C)C)NC(=O)CNC(=O)[C@H](CC(C)C)NC(=O)[C@H]2CCCN2C(=S)Nc2ccc(OC3O[C@H](C)[C@H](O)[C@H](OC)[C@@H]3O)cc2)C(C)C)C(=O)OCc2c1cc1n(c2=O)Cc2cc3ccccc3nc2-1 (stereo partly drawn) [Example 7] (X1-[dP]LG[dL][dD][dV]-X2) |  | 200 nM | 100 nM |  |  | 600 nM | 9 |  |  |  | 
8 | CC[C@@]1(OC(=O)[C@H](NC(=O)[C@@H](Cc2c[nH]c3ccccc23)NC(=O)[C@@H](CC(C)C)NC(=O)CNC(=O)[C@H](CC(C)C)NC(=O)[C@H]2CCCN2C(=S)Nc2ccc(OC3O[C@H](C)[C@H](O)[C@H](OC)[C@@H]3O)cc2)C(C)C)C(=O)OCc2c1cc1n(c2=O)Cc2cc3ccccc3nc2-1 (stereo partly drawn) [Example 9] (X1-[dP]LG[dL][dW][dV]-X2) |  | 400 nM | 300 nM |  |  | 1000 nM | 64 |  |  |  | 
9 | CC[C@@]1(OC(=O)[C@H](NC(=O)[C@@H](Cc2c[nH]cn2)NC(=O)[C@@H](CC(C)C)NC(=O)CNC(=O)[C@H](CC(C)C)NC(=O)[C@H]2CCCN2C(=S)Nc2ccc(OC3O[C@H](C)[C@H](O)[C@H](OC)[C@@H]3O)cc2)C(C)C)C(=O)OCc2c1cc1n(c2=O)Cc2cc3ccccc3nc2-1.Cl (stereo partly drawn) [Example 12] (X1-[dP]LG[dL][dH][dV]-X2) |  | 150 nM | 100 nM |  | 0.03 µg/mL | 300 nM |  |  |  |  | 

Reference: patent US20020173452A1, “Cytostatic-glycoconjugates having specifically cleavable linking units” (priority 2000, published 2002)
